In patent US7521464B2, “Pyrazole compounds for treatment of neurodegenerative disorders” (Pfizer Inc., priority 2002, dated 2009):

Tested on: gamma-secretase
Test: gamma-secretase activity in a solubilized membrane preparation (cell-free assay per McLendon et al.)
Type: biochemical
Conditions: read-out: IC50 activity for inhibiting gamma-secretase activity
Procedure: The activity of compounds of the invention in inhibiting gamma-secretase activity was determined in a solubilized membrane preparation generally according to the description provided in McLendon et al. Cell-free assays for γ-secretase activity, The FASEB Journal (Vol. 14, December 2000, pp. 2383-2386).

Row | Compound | IC50 [nM]
1 | O=C(Cc1cc(F)cc(F)c1)NC(C(=O)Nc1cc(-c2ccccc2)n[nH]1)c1ccccc1 (centres unmarked) [Example 84, 2-[2-(3,5-difluoro-phenyl)-acetylamino]-2-phenyl-N-(5-phenyl-2H-pyrazol-3-yl)-acetamide] | ~1000
2 | CCCC(NC(=O)CC(C)CCC=C(C)C)C(=O)Nc1cc(-c2ccccc2)n[nH]1 (centres unmarked) [Example 138, 3,7-Dimethyl-oct-6-enoic acid [1-(5-phenyl-2H-pyrazol-3-ylcarbamoyl)-butyl]-amide] | ~5000
